The results in this text go back to patent US6452067B1, “Methods to assay for post-transcriptional suppression of gene expression” (DNA Plant Technology Corporation, priority 1997, dated 2002).

What all share (format): cell-based
For assay [1], the system named is control tomato (line 91103, nontransformed control) leaf explants. Description: GUS assay of SSR pPO7110 in precultured leaf explants, control tomato. As to the method:
(§1) Two 4 mm discs were cut from each leaf and placed into a solution of Agrobacteria harboring either the suppression-sensitive GUS reporter construct pPO7110 or a control, nonsuppression-sensitive GUS construct, such as pPO7113, that lacks LE-ACS-2 sequences but is identical in every other respect. The Agrobacteria were previously grown in minimal medium containing sucrose and tetracycline at 1 mg/l to an apparent optical density of about 0.2 at 550 nm. Cultures at densities ranging from 0.1-0.4 were used, but the final density was always adjusted to 0.2 at 550 nm using growth medium. Discs were incubated with the Agrobacteria for 0.5-1.5 minutes, then removed and placed on sterile filter paper that was placed on top of tomato cocultivation medium (MS salts with IAA @ 0.05 mg/l, zeatin @ 1 mg/l and 100 μM acetosyringone and 1% gelrite).
(§2) The plates were incubated at 28° C. in the dark for 2.5 days whereupon the discs were removed and stained for GUS activity using 5-bromo-4-chloro-3-indolyl […] (X-Gluc). The discs were vacuum infiltrated for 2 minutes with the substrate solution containing 100 mM potassium phosphate pH 7.0, 10 mM EDTA, 2 mM potassium ferricyanide, 2 mM potassium ferrocyanide, 500 mg/1 X-Gluc, and 0.1% Triton X-100. Incubation was continued overnight (about 14-16 hr) at 37° C. and the plates were visually inspected for the presence of the insoluble blue precipitate a product of the GUS enzyme acting on the X-Gluc substrate. Tissues derived from nontransformed plants or transformed plants not displaying sense suppression will show the presence of a blue precipitate indicative of GUS activity while tissue derived from plants in the suppressed state will show no or comparatively little blue precipitate.
(§3) Strawberry plants which were continuously cultured in axenic conditions in vitro are used as a source of leaf explants. No ethanol dip or other form of surface sterilization was done on the strawberry leaves. […] This preculture step was carried out under lights at 28° C. for 4 days.
(§4) Three different concentrations of acetyosyringone were used in the preculture medium, 100 μM, 250 μM and 1000 μM.

Assay [2] concerns strawberry leaf explants. Nature of the assay: GUS assay in precultured leaf explants, strawberry. How it is done:
as §1, §2, §3, §4

The subject of assay [3] is 1345 tomato (an LE-ACS-2 suppressant) leaf explants. Nature of the assay: GUS assay of SSR pPO7110 in precultured leaf explants, 1345 tomato. As to the method:
as §1, §2, §3, §4

Setting [4] is: 1 mg/l hormone in preculture/cocultivation medium, 0-10 scale.
The mark [5] stands for this setting: vac 100AS (100 μM acetosyringone in preculture medium).
[6] abbreviates: vac 250AS (250 μM acetosyringone).
Setting [7] is: vac 1000AS (1000 μM acetosyringone).

Consider `O=C(O)Cc1cccc2ccccc12` [NAA], for which the “GUS Assay Results, visual rating of GUS staining (mean in parentheses)” value (“GUS Assay Results, visual rating” below) in assay [1] (setting [4]) is reported as 0,1,3,3 (1.8); in assay [1] (3 mg/l NAA), 3,6,6,6 (5.25); in assay [2] (setting [4]), 0,0,0,0 (0); in assay [2] (3 mg/l NAA), 0,0,0,1 (0.3); in assay [3] (setting [4]), 0,0,0,1 (0.3); in assay [3] (3 mg/l NAA), 0,1,2,4 (1.8).
Turning to `O=C(O)Cc1c[nH]c2ccccc12` [IAA], the “GUS Assay Results, visual rating” value in assay [1] (setting [4]) was 5,8,9,9 (7.8); in assay [2] (setting [4]), 0,0,0,0 (0); in assay [3] (setting [4]) it was 0,4,4,6 (4.7).
As to `O=C(O)COc1ccc(Cl)cc1Cl` [2,4-D], the “GUS Assay Results, visual rating” value in assay [1] (setting [4]) is reported as 3,4,7,8 (5.5); in assay [2] (setting [4]), 0,0,0,0 (0); in assay [3] (setting [4]), 2,2,3 (2.3).
Consider `COc1cc(C(C)=O)cc(OC)c1O` [AS, acetosyringone], for which the “GUS Assay Results, visual rating” value in assay [1] (setting [5]) is listed as 0,0,0,0 (0); in assay [1] (setting [6]), 0,0,0,0 (0); in assay [1] (setting [7]), 0,0,1,2 (0.8); in assay [2] (setting [5]), 0,0,0,0 (0); in assay [2] (setting [6]), 0,0,0,0 (0); in assay [2] (setting [7]) it was 0,0,0,0 (0). Further, the “GUS Assay Results, visual rating” value in assay [3] (setting [5]), in assay [3] (setting [6]) and in assay [3] (setting [7]) was 0,0,0,0 (0) throughout.
